Each structure is given as a SMILES string. Several values for one entry are separate records, joined by “and”; a condition that tells them apart may be missing. Equal values may be shown once. Where a name gives a salt, the structure may show the parent alone. Read-outs that look alike come from different tables or passages of the source. Marks after values point to notes of the source that are not given here. Peptide text beside a SMILES is read from it. * marks the point of attachment. Cbz = O=C(OCc1ccccc1)*; CH2F = FC*

The text below walks through data of paper PMC9958325 (Nature Communications, 2023).

The subject of one data set is SARS-CoV-2^WK-521. Nature of the data set: microbe, parasite or virus in culture. It counts as cell-based. More on the design: EC95, individual assays / EC95, Average: unit: µM.
Data set [1] can be described thus: Pharmacokinetic study in ICR mice. The settings on record: N = 2 to 3 male or female ICR mice; 5h, TKB125 i.v. 2 mg/kg.
Data set [2] relates to SARS-CoV-2^WK521 in HeLa-ACE2-TMPRSS2 cells. Nature of the data set: Antiviral assay, HeLa-ACE2-TMPRSS2 cells, WK521. It counts as cell-based.
Data set [3] can be described thus: in vitro. Conditions: African green monkey, VeroE6 cells.
Data set [4] can be described thus: in vitro. The settings on record: human, HeLa-ACE2-TMPRSS2 cells.
The next data set concerns the target T1, human cathepsin L (Homo sapiens, UniProt P07711).
T1 construct: purchased abcam ab197012
Briefly: Human cathepsin L inhibitor screening assay. Conditions: triplicate, listed as Cathepsin L inhibitor/FF-FMK. Format: biochemical.

For the next data set, the target named is SARS-CoV-2 M^pro/3CL^pro (Severe acute respiratory syndrome coronavirus 2, UniProt P0DTD1). Format: biochemical. More on the design: IC95, individual assays / IC95, Average: unit: µM.
The conditions of data set [5]: mouse, in vivo.
The next data set concerns VeroE6 cells. Briefly: Intracellular concentrations of compounds (LC/MS), VeroE6 cells. The settings on record: Vero, calculated value per cell count.
A further data set has as its system HeLa-ACE2-TMPRSS2 cells. Briefly: Intracellular concentrations of compounds (LC/MS), HeLa-ACE2-TMPRSS2 cells. Conditions: for intracellular compound, /1x10^6: calculated value per cell count; for intracellular compound, calculated value /20uL: from AUC against pmol standard curve.
Where [6] appears, read: read-out: EC50, individual assays.
Where [7] appears, read: read-out: SARS-CoV2 RNA VeroE6 cell-based assay EC50.
[8] abbreviates: Severe acute respiratory syndrome coronavirus 2, Vero C1008, read-out: SARS-CoV2 RNA VeroE6 cell-based assay EC50.
Where [9] appears, read: Severe acute respiratory syndrome coronavirus 2, SARS-CoV-2^WK521, read-out: EC50, HeLa-ACE2-TMPRSS2.
Setting [10] is: Severe acute respiratory syndrome coronavirus 2, read-out: EC50, HeLa-AEC2-TMPRSS2, individual assays, source data.
Where [11] appears, read: Severe acute respiratory syndrome coronavirus 2, source data, read-out: EC50, HeLa-AEC2-TMPRSS2, Average.
Where [12] appears, read: read-out: EC50, HeLa-AEC2-TMPRSS2, individual assays, source data.
Setting [13] is: FRET, mean ± 1 S.D., read-out: SARS-CoV2 M^pro enzyme assay IC50.
Where [14] appears, read: source data, M^pro enzyme assay.
[15] abbreviates: source data, M^pro enzyme assay, read-out: IC50, Average.
Where [16] appears, read: Hela ACE2 TMPRSS2, drug 10, duplicates.
[17] abbreviates: Hela ACE2 TMPRSS2, drug 50, duplicates.
[18] abbreviates: Hela ACE2 TMPRSS2, drug 100, duplicates.

T1 sequence (P07711 114-333): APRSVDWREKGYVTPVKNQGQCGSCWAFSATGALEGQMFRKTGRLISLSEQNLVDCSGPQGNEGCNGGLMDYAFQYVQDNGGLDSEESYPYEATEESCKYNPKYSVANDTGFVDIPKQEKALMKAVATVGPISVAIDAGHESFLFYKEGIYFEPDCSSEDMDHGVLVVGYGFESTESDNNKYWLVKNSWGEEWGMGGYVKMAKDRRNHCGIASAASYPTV

Take `COc1cccc2[nH]c(C(=O)N[C@@H](CC(C)C)C(=O)N[C@@H](C[C@@H]3CCNC3=O)C(=O)c3nc4ccccc4s3)cc12` [Compound 5h, reference compound]: in the data set on SARS-CoV-2^WK-521, the “EC95, Average” value is given as 9.4675; the “EC95, individual assays” value was 9.47 and 9.68 and 9.72 and 9; the “SARS-CoV2 RNA VeroE6 cell-based assay EC95” value stood at 9470 ± 330 nM. In the data set on SARS-CoV-2^WK-521 (setting [6]), the EC50 (commonly the concentration that produces a half-maximal response) is 2700 nM and 3200 nM and 2000 nM and 2500 nM. Also, in the data set on SARS-CoV-2^WK-521 (setting [7]), the EC50 turned out to be 2600 ± 500 nM. Besides, in data set [1], the T1/2 was 0.27§ h.

With `Cn1cnc(Cn2c(=O)[nH]/c(=N\c3cc4cn(C)nc4cc3Cl)n(Cc3cc(F)c(F)cc3F)c2=O)n1` [Ensitrelvir fumarate], the 50% effective concentration (EC50) with SARS-CoV-2^WK-521 (Severe acute respiratory syndrome coronavirus 2, Vero C1008, read-out: EC50, Average) is 106 nM; in the data set with SARS-CoV-2^WK-521 (setting [8]), 110 ± 50 nM; with SARS-CoV-2^WK-521 (setting [6]) it was 45 nM and 127 nM and 156 nM and 98 nM; in data set [2] (setting [9]), 200 ± 30 nM; in data set [2] (setting [10]) it was 211 nM; in data set [2] (setting [11]), 204 nM. Besides, the EC50 in data set [2] (setting [12]) is 230 nM and 170 nM. In addition, the 50% cytotoxic concentration (CC50) at 3 days in the data set “in vitro [3]” and in “in vitro [4]” was over 100000 nM each time.

Take `O=C(NC(Cc1ccccc1)C(=O)NC(Cc1ccccc1)C(=O)CF)OCc1ccccc1` (stereo not drawn) [FF-FMK, reference compound] (Cbz-Phe-Phe-CH2F; configuration not given here): the “% inhibition against human Cathepsin” value is 39.8315% and 40.7898% and 42.7898% on human cathepsin L (0.00106 µM); 58.2277% and 58.5989% and 59.5989% at human cathepsin L (0.0053 µM); 77.0946% and 80.3037% and 81.3037% on human cathepsin L (0.0266 µM); 98.8112% and 98.8499% on human cathepsin L (0.6 µM); 99.7789% and 99.782% at human cathepsin L (3.3 µM); 99.9553% and 99.0234% and 100.023% at human cathepsin L (16.6 µM).

`CC(C)C(=O)OC[C@H]1O[C@@H](n2ccc(NO)nc2=O)[C@H](O)[C@@H]1O` [Molnupiravir]: the EC50 in the data set on SARS-CoV-2^WK-521 (Severe acute respiratory syndrome coronavirus 2, Vero C1008, read-out: EC50, individual assays) was 270 nM; with SARS-CoV-2^WK-521 (setting [8]), 350 ± 60 nM; in the data set on SARS-CoV-2^WK-521 (setting [6]) it was 330 nM and 380 nM and 420 nM; in data set [2] (setting [9]) it was 320 ± 70 nM; in data set [2] (setting [10]), 270 nM; in data set [2] (setting [11]), 323 nM. For the same compound, the EC50 in [2] (setting [12]) is 300 nM and 400 nM. Further, the CC50 at 3 days in “in vitro [3]” and in “in vitro [4]” was over 100000 nM throughout.

With `COc1ccc(F)c2[nH]c(C(=O)N[C@@H](CC(C)C)C(=O)N[C@@H](C[C@@H]3CCNC3=O)C(=O)c3nc4ccccc4s3)cc12` [TKB125], the “SARS-CoV2 M^pro enzyme assay IC95” value at SARS-CoV-2 M^pro/3CL^pro (FRET, mean ± 1 S.D.) is 1020 ± 400 nM. The IC50 – broadly, the point on the concentration scale where inhibition reaches its midpoint – is 34 ± 6 nM at SARS-CoV-2 M^pro/3CL^pro (setting [13]); 34 nM on SARS-CoV-2 M^pro/3CL^pro (setting [15]); 28.2 nM and 39.6 nM and 34.1 nM on SARS-CoV-2 M^pro/3CL^pro (source data, M^pro enzyme assay, read-out: IC50, individual assays). Moreover, the “IC95, Average” value against SARS-CoV-2 M^pro/3CL^pro (setting [14]) worked out at 1.022. Also, the “IC95, individual assays” value against SARS-CoV-2 M^pro/3CL^pro (setting [14]) was 0.8844 and 1.476 and 0.7048. Besides, the “EC95, Average” value with SARS-CoV-2^WK-521 is on record as 8.3875. In addition, in the data set on SARS-CoV-2^WK-521, the “EC95, individual assays” value was 8.28 and 8.91 and 7.98 and 8.38. Moreover, the “SARS-CoV2 RNA VeroE6 cell-based assay EC95” value in the data set on SARS-CoV-2^WK-521 is 8390 ± 390 nM. In addition, the EC50 in the data set on SARS-CoV-2^WK-521 (read-out: EC50, Average) was 1820 nM; in the data set with SARS-CoV-2^WK-521 (setting [6]) it was 1700 nM and 1510 nM and 3160 nM and 900 nM; in the data set on SARS-CoV-2^WK-521 (setting [7]), 1820 ± 960 nM. For the same compound, the T1/2 in [1] is reported as 0.76 § h.

Turning to `COc1ccc(F)c2[nH]c(C(=O)N[C@@H](CC(C)C)C(=O)N[C@@H](C[C@@H]3CCNC3=O)C(=O)c3nc4c(F)cccc4s3)cc12` [TKB198], the “SARS-CoV2 M^pro enzyme assay IC95” value on SARS-CoV-2 M^pro/3CL^pro (FRET, mean ± 1 S.D.) is 750 ± 270 nM. Also, the IC50 on SARS-CoV-2 M^pro/3CL^pro (setting [13]) was 23 ± 13 nM; on SARS-CoV-2 M^pro/3CL^pro (source data, M^pro enzyme assay, listed as TKB0198, read-out: IC50, individual assays), 36 nM and 10.1 nM; on SARS-CoV-2 M^pro/3CL^pro (setting [15]) it was 23 nM. On SARS-CoV-2 M^pro/3CL^pro (setting [14]), the “IC95, Average” value is 0.7533. In addition, the “IC95, individual assays” value at SARS-CoV-2 M^pro/3CL^pro (source data, M^pro enzyme assay, listed as TKB0198) is 1.0700 and 0.6000 and 0.5900. Further, the “EC95, Average” value in the data set on SARS-CoV-2^WK-521 turned out to be 0.834. Also, the “EC95, individual assays” value in the data set on SARS-CoV-2^WK-521 is 0.856 and 0.86 and 0.8 and 0.82. Further, in the data set on SARS-CoV-2^WK-521, the “Improvement of EC50 and EC95 values relative to TKB125” value is given as “about 10 fold”. Also, in the data set with SARS-CoV-2^WK-521, the “SARS-CoV2 RNA VeroE6 cell-based assay EC95” value stood at 830 ± 30 nM. The EC50 was 272 nM in the data set with SARS-CoV-2^WK-521 (read-out: EC50, Average); 130 nM and 300 nM and 400 nM and 260 nM in the data set on SARS-CoV-2^WK-521 (setting [6]); 270 ± 110 nM with SARS-CoV-2^WK-521 (setting [7]). Also, the Cmax – broadly, the maximum level reached in the sampled fluid or tissue – in [5] is listed as 85 ng/mL. For the same compound, the “Oral F” value in [5] (po) was 1.98§ %. For the same compound, the T1/2 in [1] is 0.83 § h.

As to `CC(C)(C)C(NC(=O)C(F)(F)F)C(=O)N1CC2C(C1C(=O)NC(CC1CCNC1=O)C(=O)c1nc3c(F)cccc3s1)C2(C)C` (stereo not shown) [TKB0245A], the “intracellular compound, /1x10^6” value was 0.09213 /1x10^6 and 0.09745 /1x10^6 in the data set with VeroE6 cells (drug 10, duplicates); 0.9321 /1x10^6 and 0.7861 /1x10^6 with VeroE6 cells (drug 100, duplicates); 0.2544 /1x10^6 and 0.228 /1x10^6 in the data set with HeLa-ACE2-TMPRSS2 cells (setting [16]); 1.834 /1x10^6 and 1.4997 /1x10^6 with HeLa-ACE2-TMPRSS2 cells (setting [17]); 3.325 /1x10^6 and 3.755 /1x10^6 with HeLa-ACE2-TMPRSS2 cells (setting [18]). Besides, the “intracellular compound, pmol(total)” value is 0.636 pmol and 0.5701 pmol in the data set on HeLa-ACE2-TMPRSS2 cells (setting [16]); 4.585 pmol and 3.749 pmol in the data set on HeLa-ACE2-TMPRSS2 cells (setting [17]); 8.312 pmol and 9.388 pmol with HeLa-ACE2-TMPRSS2 cells (setting [18]). The “intracellular compound, calculated value /20uL” value in the data set with HeLa-ACE2-TMPRSS2 cells (setting [16]) is 0.59 /20uL and 0.50 /20uL; with HeLa-ACE2-TMPRSS2 cells (setting [17]), 4.77 /20uL and 3.30 /20uL; in the data set on HeLa-ACE2-TMPRSS2 cells (setting [18]) it was 6.65 /20uL and 9.39 /20uL.
